Measured values as given in article PMC9103105 (2022).

Experiments:
[1] = tested on: aptamer 1.12.2 (DNA, aptamer) GATCGGGTGTGGGTGGCGTAAAGGGAGCATCGGACA; experiment: fluorescence anisotropy titration; conditions: 100 mM Na+ (acetate), 10 mM MgCl2, 10 mM CaCl2; 20 mM Tris-acetate pH 8.4, room temperature
[2] = tested on: Mut2 (DNA, aptamer) GATCGGGTGTGGGTGGCGTAAAGGGAGCATCGG; experiment: fluorescence anisotropy titration; conditions: 100 mM Na+ (acetate), 10 mM MgCl2, 10 mM CaCl2; 20 mM Tris-acetate pH 8.4, room temperature
[3] = tested on: aptamer 1.12.2 (DNA, aptamer) GATCGGGTGTGGGTGGCGTAAAGGGAGCATCGGACA; experiment: ITC; conditions: 100 mM Na+ (acetate), 10 mM MgCl2, 10 mM CaCl2; 20 mM Tris-acetate pH 8.4, 25 °C; one-site model
[4] = tested on: aptamer–ssDNA {6–15} complex (DNA, duplex) GATCGGGTGTGGGTGGCGTAAAGGGAGCATCGGACA/CACCCACACC; experiment: circular dichroism; conditions: 100 mM Na+ (acetate), 10 mM MgCl2, 10 mM CaCl2; 20 mM Tris-acetate pH 8.4, room temperature; 1 µM complex, up to 10 µM OTA
[5] = tested on: aptamer 1.12.2 (DNA, aptamer) GATCGGGTGTGGGTGGCGTAAAGGGAGCATCGGACA; experiment: fluorescence anisotropy competition; conditions: 100 mM Na+ (acetate), 10 mM MgCl2, 10 mM CaCl2, 20 mM Tris-acetate pH 8.4, 90 nM aptamer

KD [1] [µM] | KD [2] [µM] | KD [3] [µM] | binding [4] | L50 ([5]; tracer 5 nM OTA-Flu displaced) [nM] | KI ([5]; tracer OTA-Flu displaced) [µM] | Structure (SMILES)
0.183 ± 0.014 | 0.192 |  |  |  |  | C[C@@H]1Cc2c(Cl)cc(C(=O)N[C@@H](Cc3ccccc3)C(=O)NCc3c(O)ccc4c3Oc3cc(O)ccc3C43OC(=O)c4ccccc43)c(O)c2C(=O)O1 (stereo partly drawn)
 |  | 0.131 ± 0.032 | no | 106.2 ± 6.4 | 0.0363 ± 0.0021 | C[C@@H]1Cc2c(Cl)cc(C(=O)N[C@@H](Cc3ccccc3)C(=O)O)c(O)c2C(=O)O1
